From the supplement of paper PMC11061612

What was measured:
[1] = tested on: OVTOKO (Ovarian Carcinoma); assay: combination Emax (second highest fraction inhibited in the dose matrix, 72 h); higher = more inhibition; extreme values may be limits of the assay
Outline: (§1)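 Bliss excess equals the observed combination effect minus the expected value EA + EB − EA·EB, where EA and EB are the effects of each agent alone. Combination Emax is the second-highest inhibition within the matrix. Inhibition was scaled from CellTiter-Glo 2.0 luminescence, with 0 set by vehicle wells and 1 by blank wells, after 72 hours of two-drug dosing of cells plated in 1536-well plates.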

[2] = tested on: Becker (Low Grade Glioma); assay: as above
Outline: as §1

[3] = tested on: LAMA-84 (Chronic Myelogenous Leukemia); assay: as above
Outline: as §1

[4] = tested on: Caov-3 (Ovarian Carcinoma); assay: as above
Outline: as §1

[5] = tested on: PC-14 (Lung Adenocarcinoma); assay: as above
Outline: as §1

[6] = tested on: NCI-H1155 (Non-Small Cell Lung Carcinoma); assay: as above
Outline: as §1

HuO-3N1 (Osteosarcoma) = assay: as above
Outline: as §1

[7] = tested on: AsPC-1 (Pancreatic Carcinoma); assay: as above
Outline: as §1

[8] = tested on: CML-T1 (Chronic Myelogenous Leukemia); assay: as above
Outline: as §1

[9] = tested on: KYSE-70 (Esophageal Squamous Cell Carcinoma); assay: as above
Outline: as §1

[10] = tested on: RPMI-8866 (Chronic Myelogenous Leukemia); assay: as above
Outline: as §1

[11] = tested on: SJRH30 (Rhabdomyosarcoma); assay: as above
Outline: as §1

[12] = tested on: PANC-02-03 (Pancreatic Carcinoma); assay: as above
Outline: as §1

RT4 (Bladder Carcinoma) = assay: as above
Outline: as §1

[13] = tested on: SW684 (Other Solid Carcinomas); assay: as above
Outline: as §1

[14] = tested on: OV-90 (Ovarian Carcinoma); assay: as above
Outline: as §1

[15] = tested on: RMG-I (Ovarian Carcinoma); assay: as above
Outline: as §1

[16] = tested on: RL95-2 (Endometrial Carcinoma); assay: as above
Outline: as §1

[17] = tested on: OCI-AML5 (Acute Myeloid Leukemia); assay: Bliss excess, mean over the matrix (fraction); higher = more synergy
Outline: as §1

[18] = tested on: EB-3 (Burkitt's Lymphoma); assay: as above
Outline: as §1

SMILES | combination Emax [1] | combination Emax [2] | combination Emax [3] | combination Emax [4] | combination Emax [5] | combination Emax [6] | combination Emax (HuO-3N1 (Osteosarcoma)) | combination Emax [7] | combination Emax [8] | combination Emax [9] | combination Emax [10] | combination Emax [11] | combination Emax [12] | combination Emax (RT4 (Bladder Carcinoma)) | combination Emax [13] | combination Emax [14] | combination Emax [15] | combination Emax [16] | Bliss excess [17] | Bliss excess [18]
CN(CCO)CC[C@H](CSc1ccccc1)Nc1ccc(S(=O)(=O)NC(=O)c2ccc(N3CCC([C@@H](O)c4ccccc4-c4ccc(Cl)cc4)CC3)cc2)cc1S(=O)(=O)C(F)(F)F [AZD4320] + CN(C)CCCOc1ccc(-c2ccc3ncc4c(c3c2)n(C2CCOCC2)c(=O)n4C)cn1 [AZD0156] (first compound max 1 µM, 7x7, partner max 1 µM) | 0.25 | 0.0869 | 0.667 | 0.541 | 0.17 | 0.717 | 0.164 | 0.602 | 0.987 | 0.115 | 0.552 | 0.147 | 0.138 | 0.266 | 0.19 | 0.5 | 0.79 | 0.124 | -0.0015 | -0.0389
CN(CCO)CC[C@H](CSc1ccccc1)Nc1ccc(S(=O)(=O)NC(=O)c2ccc(N3CCC([C@@H](O)c4ccccc4-c4ccc(Cl)cc4)CC3)cc2)cc1S(=O)(=O)C(F)(F)F [AZD4320] + C[C@@H]1COCCN1C2=NC(=NC(=C2)C3(CC3)[S@](=N)(=O)C)C4=C5C=CNC5=NC=C4 [AZD6738] (first compound max 1 µM, 7x7, partner max 10 µM) | 0.54 | 0.846 | 0.989 | 0.958 | 0.93 | 0.985 | 0.479 | 0.662 | 1 | 0.493 | 1 | 0.927 | 0.615 | 0.791 | 0.537 | 0.917 | 0.882 | 0.751 | 0.0284 | -0.0287
CC1(C)CCC(CN2CCN(c3ccc(C(=O)NS(=O)(=O)c4ccc(NCC5CCOCC5)c([N+](=O)[O-])c4)c(Oc4cnc5[nH]ccc5c4)c3)CC2)=C(c2ccc(Cl)cc2)C1 [Venetoclax] + C=CCn1c(=O)c2cnc(Nc3ccc(N4CCN(C)CC4)cc3)nc2n1-c1cccc(C(C)(C)O)n1 [AZD1775] (first compound max 1 µM, partner max 1 µM) | 0.529 | 0.76 | 0.964 | 0.801 | 0.93 | 0.223 | 0.386 | 0.282 | 1 | 0.604 | 0.951 | 0.9 | 0.494 | 0.372 | 0.604 | 0.512 | 0.57 | 0.475 | -0.0397 | -0.0193
CCN(CCO)CCCOc1ccc2c(Nc3cc(CC(=O)Nc4cccc(F)c4)[nH]n3)ncnc2c1 [AZD2811] + O=C(c1cc(Cc2n[nH]c(=O)c3ccccc23)ccc1F)N1CCN(C(=O)C2CC2)CC1 [Olaparib] (first compound max 1 µM, 7x7, partner max 10 µM) | 0.223 | 0.12 | 0.488 | 0.82 | 0.303 | 0.443 | 0.178 | 0.18 | 0.829 | 0.203 | 0.69 | 0.255 | 0.307 | 0.377 | 0.265 | 0.249 | 0.231 | 0.73 | -0.0224 | -0.0307
Cc1cc2ncnn2cc1Nc1ncc2c(n1)n(C1CCOCC1)c(=O)n2C [AZD7648] + CCN(CCO)CCCOc1ccc2c(Nc3cc(CC(=O)Nc4cccc(F)c4)[nH]n3)ncnc2c1 [AZD2811] (first compound max 10 µM, 7x7, partner max 1 µM) | 0.232 | 0.214 | 0.336 | 0.885 | 0.312 | 0.475 | 0.35 | 0.267 | 0.49 | 0.238 | 0.732 | 0.24 | 0.254 | 0.491 | 0.352 | 0.323 | 0.466 | 0.595 | -0.0377 | -0.0338
CC1(C)CCC(CN2CCN(c3ccc(C(=O)NS(=O)(=O)c4ccc(NCC5CCOCC5)c([N+](=O)[O-])c4)c(Oc4cnc5[nH]ccc5c4)c3)CC2)=C(c2ccc(Cl)cc2)C1 [Venetoclax] + CN(C)CCCOc1ccc(-c2ccc3ncc4c(c3c2)n(C2CCOCC2)c(=O)n4C)cn1 [AZD0156] (first compound max 1 µM, 7x7, partner max 1 µM) | 0.385 | 0.434 | 0.339 | 0.59 | 0.259 | 0.145 | 0.262 | 0.193 | 0.947 | 0.104 | 0.0785 | 0.177 | 0.194 | 0.189 | 0.284 | 0.3 | 0.348 | 0.135 | -0.0618 | 0.0498
